Patent US20230150953A1, “SUBSTITUTED ISOPHTHALIC ACID DIAMIDES” (Bayer Aktiengesellschaft, priority 2020, published 2023)

What was measured:
Format in all cases: in vivo
[1] = test system: AMARE Amaranthus retroflexus; test: Pre-emergence herbicidal action against harmful plants; details: scored visually after 3 weeks vs untreated controls
From the text: (§1) The abbreviations used for the harmful plants mean: • ABUTH Abutilon theophrasti ALOMY Alopecurus myosuroides • AVEFA Avena fatua AMARE Amaranthus retroflexus • CYPES Cyperus esculentus DIGSA Digitaria sanguinalis • ECHCG Echinochloa crus-galli HORMU Hordeum murinum • LOLMU Lolium multiflorum LOLRI Lolium rigidum • MATIN Matricaria inodora PHBPU Pharbitis purpurea • POLCO Polygonum convolvulus SETVI Setaria viridis • STEME Stellaria media VERPE Veronica persica • VIOTR Viola tricolor 1. Pre-Emergence Herbicidal Action Against Harmful Plants Seeds of monocotyledonous and dicotyledonous weed plants and crop plants are laid out in sandy loam soil in wood-fiber pots and covered with soil. The compounds of the invention, formulated in the form of wettable powders (WP) or as emulsion concentrates (EC), are then applied to the surface of the covering soil in the form of an aqueous suspension or emulsion at a water application rate equivalent to 600 to 800 l/ha, with addition of 0.2% wetting agent. After the treatment, the pots are placed in a greenhouse and kept under good growth conditions for the trial plants. The damage to the test plants is scored visually after a test period of 3 weeks by comparison with untreated controls (herbicidal activity in percent (%): 100% activity=the plants have died, 0% activity=like control plants). […] The tables below illustrate, in an illustrative manner, the post-emergence herbicidal action of the compounds of the invention, the herbicidal activity being stated in percent.

[2] = test system: ABUTH Abutilon theophrasti; test: as above; details: 80 g/ha, scored visually after 3 weeks vs untreated controls
From the text: as §1

SETVI Setaria viridis [3] = test: as above; details: scored visually after 3 weeks vs untreated controls
From the text: as §1

[4] = test system: DIGSA Digitaria sanguinalis; test: as above; details: scored visually after 3 weeks vs untreated controls
From the text: as §1

[5] = test system: ALOMY Alopecurus myosuroides; test: as above; details: 80 g/ha, scored visually after 3 weeks vs untreated controls
From the text: as §1

MATIN Matricaria inodora = test: as above; details: scored visually after 3 weeks vs untreated controls
From the text: as §1

[6] = test system: AMARE Amaranthus retroflexus; test: Post-emergence herbicidal action against harmful plants; details: one-leaf stage, assessed visually after about 3 weeks vs untreated controls
From the text: (§2) The abbreviations used for the harmful plants mean: • ABUTH Abutilon theophrasti ALOMY Alopecurus myosuroides • AVEFA Avena fatua AMARE Amaranthus retroflexus • CYPES Cyperus esculentus DIGSA Digitaria sanguinalis • ECHCG Echinochloa crus-galli HORMU Hordeum murinum • LOLMU Lolium multiflorum LOLRI Lolium rigidum • MATIN Matricaria inodora PHBPU Pharbitis purpurea • POLCO Polygonum convolvulus SETVI Setaria viridis • STEME Stellaria media VERPE Veronica persica • VIOTR Viola tricolor 2. Post-Emergence Herbicidal Action Against Harmful Plants Seeds of monocotyledonous and dicotyledonous weed and crop plants are laid out in sandy loam soil in wood-fiber pots, covered with soil and cultivated in a greenhouse under good growth conditions. 2 to 3 weeks after sowing, the test plants are treated at the one-leaf stage. The compounds of the invention, formulated in the form of wettable powders (WP) or as emulsion concentrates (EC), are then sprayed onto the green parts of the plants in the form of an aqueous suspension or emulsion at a water application rate equivalent to 600 to 800 l/ha, with addition of 0.2% wetting agent. After the test plants have been left to stand in the greenhouse under optimal growth conditions for about 3 weeks, the action of the preparations is assessed visually in comparison to untreated controls (herbicidal action in percent (%): 100% activity=the plants have died, 0% activity=like control plants). […] The tables below illustrate, in an illustrative manner, the post-emergence herbicidal action of the compounds of the invention, the herbicidal activity being stated in percent.

[7] = test system: ECHCG Echinochloa crus-galli; test: as above; details: 20 g/ha, one-leaf stage, assessed visually after about 3 weeks vs untreated controls
From the text: as §2

SETVI Setaria viridis [8] = test: as above; details: one-leaf stage, assessed visually after about 3 weeks vs untreated controls
From the text: as §2

PHBPU Pharbitis purpurea = test: as above; details: 20 g/ha, one-leaf stage, assessed visually after about 3 weeks vs untreated controls
From the text: as §2

[9] = test system: ECHCG Echinochloa crus-galli; test: Pre-emergence herbicidal action against harmful plants; details: scored visually after 3 weeks vs untreated controls
From the text: as §1

[10] = test system: POLCO Polygonum convolvulus; test: as above; details: 80 g/ha, scored visually after 3 weeks vs untreated controls
From the text: as §1

VERPE Veronica persica = test: as above; details: 80 g/ha, scored visually after 3 weeks vs untreated controls
From the text: as §1

[11] = test system: ALOMY Alopecurus myosuroides; test: Post-emergence herbicidal action against harmful plants; details: one-leaf stage, assessed visually after about 3 weeks vs untreated controls
From the text: as §2

[12] = test system: ABUTH Abutilon theophrasti; test: as above; details: one-leaf stage, assessed visually after about 3 weeks vs untreated controls
From the text: as §2

SMILES	Pre-emergence action at 20 g/ha against AMARE in % [1]	Pre-emergence action at 80 g/ha against AMARE in % [1]	Pre-emergence action at 80 g/ha against ABUTH in % [2]	Pre-emergence action at 20 g/ha against SETVI in % (SETVI Setaria viridis [3]; 20 g/ha)	Pre-emergence action at 80 g/ha against SETVI in % (SETVI Setaria viridis [3]; 80 g/ha)	Pre-emergence action at 80 g/ha against DIGSA in % [4]	Pre-emergence action at 80 g/ha against ALOMY in % [5]	Pre-emergence action at 20 g/ha against MATIN in % (MATIN Matricaria inodora)	Pre-emergence action at 80 g/ha against MATIN in % (MATIN Matricaria inodora)	Post-emergence action at 5 g/ha against AMARE in % [6]	Post-emergence action at 20 g/ha against AMARE in % [6]	Post-emergence action at 20 g/ha against ECHCG in % [7]	Post-emergence action at 20 g/ha against SETVI in % (SETVI Setaria viridis [8])	Post-emergence action at 20 g/ha against PHBPU in % (PHBPU Pharbitis purpurea)	Pre-emergence action at 80 g/ha against ECHCG in % [9]	Pre-emergence action at 20 g/ha against DIGSA in % [4]	Pre-emergence action at 80 g/ha against POLCO in % [10]	Pre-emergence action at 80 g/ha against VERPE in % (VERPE Veronica persica)	Post-emergence action at 20 g/ha against ALOMY in % [11]	Post-emergence action at 20 g/ha against ABUTH in % [12]
CNC(=O)c1c(C(F)(F)F)cc(F)c(C(=O)Nc2nnnn2C)c1C [Example 1-92]	90%	100%	100%	80%	100%	100%	80%	90%	90%	80%	90%	80%	80%	80%						
CCn1nnnc1NC(=O)c1c(F)cc(C(F)(F)F)c(C(=O)NCC(F)F)c1C [Example 2-385]		100%	100%			100%		80%	90%	80%	90%		80%		80%	90%	90%			
Cn1nnnc1NC(=O)c1c(F)cc(C(F)(F)F)c(C(=O)NC2CC2)c1Cl [Example 1-182]	100%	100%	100%			100%	80%		100%	80%	100%	80%				90%	90%	100%	80%	
CNC(=O)c1c(C(F)(F)F)cc(F)c(C(=O)Nc2nnnn2C)c1Cl [Example 1-180]	100%	100%	100%			80%			100%	80%	90%					80%				90%
CCNC(=O)c1c(C(F)(F)F)cc(F)c(C(=O)Nc2nnnn2C)c1Cl [Example 1-181]	100%	100%	100%			80%			100%	90%	90%									90%
